Key:
Type in all cases: cell-based
PfCRT^Ecu1110 [1] = biological target: T1, PfCRT^Ecu1110 (Plasmodium falciparum, UniProt Q9N623, A220S/I356L/K76T/N326D); assay: [3H]CQ uptake into Xenopus oocytes, cis-inhibition by unlabelled solute; conditions: for PfCRT-mediated [3H]CQ transport, cis-inhibition (% PfCRTEcu1110 control): PfCRTEcu1110 oocytes, background [3H]CQ accumulation subtracted, normalised to oocyte type control; for [3H]CQ transport (% PfCRTEcu1110 control), cis-inhibition, PfCRTEcu1110: PfCRT-mediated component (background subtracted), sheet title says normalised to PfCRTDd2 control, mean ± SEM, SEM
T1 sequence (Q9N623 whole entry A220S/I356L/K76T/N326D): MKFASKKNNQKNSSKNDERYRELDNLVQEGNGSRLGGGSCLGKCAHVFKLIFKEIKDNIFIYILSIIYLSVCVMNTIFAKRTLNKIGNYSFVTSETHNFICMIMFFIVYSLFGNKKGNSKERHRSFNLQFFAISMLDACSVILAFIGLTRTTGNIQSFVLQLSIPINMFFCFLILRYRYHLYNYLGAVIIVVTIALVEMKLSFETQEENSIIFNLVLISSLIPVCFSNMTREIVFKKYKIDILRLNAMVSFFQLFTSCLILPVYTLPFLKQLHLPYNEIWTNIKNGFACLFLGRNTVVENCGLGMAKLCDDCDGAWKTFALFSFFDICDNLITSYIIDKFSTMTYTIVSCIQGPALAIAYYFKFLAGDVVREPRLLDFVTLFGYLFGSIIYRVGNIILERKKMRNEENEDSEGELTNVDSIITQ
Text: (§1) The orientation of PfCRT in the parasite’s DV membrane, and also in the oocyte plasma membrane, is such that its N- and C-termini extend into the cytosol. The oocytes were suspended in a reaction buffer adjusted to pH 5.5 to mimic the pH of the DV lumen[1],[2]. In this scenario, the transport of a substrate via PfCRT from the acidic extracellular solution into the oocyte cytosol[15] is analogous to the parasite’s PfCRT-mediated efflux of a substrate from the acidic DV and into the cytosol. Unless specified otherwise, this is the direction in which substrate transport was measured in the oocyte assays.
(§2) Unless specified otherwise, the transport assays were conducted over 1.5 h at 27.5 °C and the reaction buffer was ND96 (96 mM NaCl, 2 mM KCl, 1 mM MgCl2, 1.8 mM CaCl2, 10 mM MES and 10 mM Tris-base) at pH 5.5.
(§3) Ten oocytes were washed twice with the relevant ND96 buffer. […] The assay was terminated by removing the reaction buffer and washing the oocytes with ice-cold ND96 buffer. The oocytes were lysed in 10% (w/v) sodium dodecyl sulfate (SDS) and the radioactivity accumulated within each oocyte was measured with a MicroBeta^2 microplate liquid scintillation analyser (PerkinElmer).
(§4) At least four independent experiments were performed (on different days and using oocytes from different frogs), and within each experiment measurements were made from ten oocytes per treatment.

PfCRT^Dd2 [2] = biological target: T2, PfCRT^Dd2 (Plasmodium falciparum, UniProt Q9N623, A220S/I356T/K76T/M74I/N326S/N75E/Q271E/R371I); assay: as above; conditions: PfCRTDd2 oocytes, background [3H]CQ accumulation subtracted, normalised to oocyte type control
T2 sequence (Q9N623 whole entry A220S/I356T/K76T/M74I/N326S/N75E/Q271E/R371I): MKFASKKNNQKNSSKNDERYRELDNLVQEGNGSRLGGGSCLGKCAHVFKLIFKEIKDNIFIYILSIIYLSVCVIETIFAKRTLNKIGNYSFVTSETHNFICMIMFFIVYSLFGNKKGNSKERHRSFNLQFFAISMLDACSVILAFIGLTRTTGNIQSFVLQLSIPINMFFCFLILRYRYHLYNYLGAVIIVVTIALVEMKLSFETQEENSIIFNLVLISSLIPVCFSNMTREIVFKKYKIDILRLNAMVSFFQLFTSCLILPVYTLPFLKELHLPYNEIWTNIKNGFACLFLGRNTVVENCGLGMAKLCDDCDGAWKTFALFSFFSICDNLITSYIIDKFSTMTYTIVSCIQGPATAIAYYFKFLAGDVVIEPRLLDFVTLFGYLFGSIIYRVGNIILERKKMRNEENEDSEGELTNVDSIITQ
Text: as §1, §2, §3, §4

PfCRT^Ecu1110 [3] = biological target: T1, PfCRT^Ecu1110; assay: cell-based; conditions: for PfCRT-mediated [3H]CQ transport, trans-stimulation (% PfCRTEcu1110 control): PfCRTEcu1110 oocytes, normalised to oocyte type control; for [3H]CQ transport (% PfCRTDd2 control), trans-stimulation, PfCRTEcu1110: PfCRT-mediated component (background subtracted), sheet title says normalised to PfCRTDd2 control, mean ± SEM, SEM
Description: as §2
(§5) The intracellular concentrations were calculated using previous estimates of the volume of stage V–VI oocytes (~400 nL[60]). […] The oocytes were injected with VF-6 suspended in 25 nL ND96 buffer adjusted to pH 5.0, 5.5, 6.0 or 7.0, which corresponded to the injection of 2.5–250 fmol of H^+. The Na^+-dependence of the trans-stimulatory effect of VF-6 was assessed by injecting the oocytes with VF-6 suspended in ND96 buffer (pH 5.5) or a Na^+-free version of this buffer (the Na^+ was replaced with choline).
as §4

PfCRT^3D7 = PfCRT^3D7 (Plasmodium falciparum, UniProt Q8IBZ9); assay: cell-based; conditions: PfCRT3D7 oocytes, normalised to oocyte type control
Chain of PfCRT^3D7 (Q8IBZ9 59-398): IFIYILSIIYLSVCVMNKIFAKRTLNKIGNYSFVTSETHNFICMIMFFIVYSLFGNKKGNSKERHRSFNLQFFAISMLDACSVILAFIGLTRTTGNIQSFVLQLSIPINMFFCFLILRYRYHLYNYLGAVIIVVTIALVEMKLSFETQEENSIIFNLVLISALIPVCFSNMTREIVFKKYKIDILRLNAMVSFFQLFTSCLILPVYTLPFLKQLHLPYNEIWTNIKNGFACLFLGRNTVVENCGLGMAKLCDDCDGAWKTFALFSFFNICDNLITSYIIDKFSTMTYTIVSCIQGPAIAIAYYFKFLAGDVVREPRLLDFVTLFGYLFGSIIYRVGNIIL
Description: as §2, §5, §4

PfCRT^Dd2 [4] = biological target: T2, PfCRT^Dd2; assay: cell-based; conditions: for PfCRT-mediated [3H]CQ transport, trans-stimulation (% PfCRTDd2 control): PfCRTDd2 oocytes, normalised to oocyte type control; for [3H]CQ transport (% PfCRTDd2 control), trans-stimulation, PfCRTDd2: PfCRT-mediated component (background subtracted), mean ± SEM, SEM
Description: as §2, §5, §4

[5] = [test solute]i = 5 mM (intracellular)
[6] = [test solute]i = 45 mM (intracellular; 30 mM for some solutes due to solubility)
[7] = [test solute]i = 5 mM (injected)
[8] = [test solute]i = 45 mM (30 mM for some solutes due to solubility)

Row | Substance | PfCRT-mediated [3H]CQ transport, cis-inhibition (% PfCRTEcu1110 control) (PfCRT^Ecu1110 [1]; [test solute] = 0.5 mM) | PfCRT-mediated [3H]CQ transport, cis-inhibition (% PfCRTEcu1110 control) (PfCRT^Ecu1110 [1]; [test solute] = 1 mM) | PfCRT-mediated [3H]CQ transport, cis-inhibition (% PfCRTEcu1110 control) (PfCRT^Ecu1110 [1]; [test solute] = 2 mM) | [3H]CQ transport (% PfCRTEcu1110 control), cis-inhibition, PfCRTEcu1110 (PfCRT^Ecu1110 [1]; [test solute] = 0.5 mM) | [3H]CQ transport (% PfCRTEcu1110 control), cis-inhibition, PfCRTEcu1110 (PfCRT^Ecu1110 [1]; [test solute] = 1 mM) | [3H]CQ transport (% PfCRTEcu1110 control), cis-inhibition, PfCRTEcu1110 (PfCRT^Ecu1110 [1]; [test solute] = 2 mM) | PfCRT-mediated [3H]CQ transport, cis-inhibition (% PfCRTDd2 control) (PfCRT^Dd2 [2]; [test solute] = 0.5 mM) | PfCRT-mediated [3H]CQ transport, cis-inhibition (% PfCRTDd2 control) (PfCRT^Dd2 [2]; [test solute] = 1 mM) | PfCRT-mediated [3H]CQ transport, cis-inhibition (% PfCRTDd2 control) (PfCRT^Dd2 [2]; [test solute] = 2 mM) | PfCRT-mediated [3H]CQ transport, trans-stimulation (% PfCRTEcu1110 control) (PfCRT^Ecu1110 [3]; [5]) | PfCRT-mediated [3H]CQ transport, trans-stimulation (% PfCRTEcu1110 control) (PfCRT^Ecu1110 [3]; [6]) | [3H]CQ transport (% PfCRTDd2 control), trans-stimulation, PfCRTEcu1110 (PfCRT^Ecu1110 [3]; [7]) | [3H]CQ transport (% PfCRTDd2 control), trans-stimulation, PfCRTEcu1110 (PfCRT^Ecu1110 [3]; [8]) | PfCRT-mediated [3H]CQ transport, trans-stimulation (% PfCRT3D7 control) (PfCRT^3D7; [5]) | PfCRT-mediated [3H]CQ transport, trans-stimulation (% PfCRT3D7 control) (PfCRT^3D7; [6]) | PfCRT-mediated [3H]CQ transport, trans-stimulation (% PfCRTDd2 control) (PfCRT^Dd2 [4]; [5]) | PfCRT-mediated [3H]CQ transport, trans-stimulation (% PfCRTDd2 control) (PfCRT^Dd2 [4]; [6]) | [3H]CQ transport (% PfCRTDd2 control), trans-stimulation, PfCRTDd2 (PfCRT^Dd2 [4]; [7]) | [3H]CQ transport (% PfCRTDd2 control), trans-stimulation, PfCRTDd2 (PfCRT^Dd2 [4]; [8])
1 | FPHFDLS [FS-7] | 39 ± 2.5 % PfCRTEcu1110 control | 31 ± 1.7 % PfCRTEcu1110 control | 17 ± 0.8 % PfCRTEcu1110 control | 12 ± 0.4 % PfCRTEcu1110 control | 10 ± 0.2 % PfCRTEcu1110 control | 5.0 ± 0.04 % PfCRTEcu1110 control | 30 ± 3.7 % PfCRTDd2 control | 19 ± 0.7 % PfCRTDd2 control | 11 ± 0.7 % PfCRTDd2 control | 99 ± 3.6 % PfCRTEcu1110 control | 98 ± 4.3 % PfCRTEcu1110 control | 30 ± 1.3 % PfCRTEcu1110 control | 30 ± 1.4 % PfCRTEcu1110 control | 96 ± 4.6 % PfCRT3D7 control | 99 ± 2.7 % PfCRT3D7 control | 95 ± 4.2 % PfCRTDd2 control | 98 ± 4.1 % PfCRTDd2 control | 95 ± 4.2 % PfCRTDd2 control | 98 ± 4.1 % PfCRTDd2 control
2 | FSDGLA [FA-6] | 60 ± 0.7 % PfCRTEcu1110 control | 42 ± 2.5 % PfCRTEcu1110 control | 32 ± 0.5 % PfCRTEcu1110 control | 19 ± 0.1 % PfCRTEcu1110 control |  | 10 ± 0.3 % PfCRTEcu1110 control | 29 ± 0.1 % PfCRTDd2 control | 17 ± 0.7 % PfCRTDd2 control | 10 ± 0.3 % PfCRTDd2 control | 98 ± 4.5 % PfCRTEcu1110 control | 96 ± 4.7 % PfCRTEcu1110 control | 30 ± 1.4 % PfCRTEcu1110 control | 29 ± 1.3 % PfCRTEcu1110 control | 134 ± 3.2 % PfCRT3D7 control | 190 ± 4.6 % PfCRT3D7 control | 102 ± 6.2 % PfCRTDd2 control | 98 ± 4.2 % PfCRTDd2 control | 102 ± 6.2 % PfCRTDd2 control | 98 ± 4.2 % PfCRTDd2 control
3 | GLAHL [GL-5] | 68 ± 2.5 % PfCRTEcu1110 control | 58 ± 3.5 % PfCRTEcu1110 control | 28 ± 2.0 % PfCRTEcu1110 control |  | 18 ± 0.1 % PfCRTEcu1110 control | 9.0 ± 0.01 % PfCRTEcu1110 control | 62 ± 1.1 % PfCRTDd2 control | 50 ± 3.5 % PfCRTDd2 control | 20 ± 1.3 % PfCRTDd2 control | 96 ± 4.1 % PfCRTEcu1110 control | 99 ± 3.6 % PfCRTEcu1110 control | 29 ± 1.4 % PfCRTEcu1110 control | 30 ± 1.3 % PfCRTEcu1110 control | 97 ± 3.5 % PfCRT3D7 control | 94 ± 4.6 % PfCRT3D7 control | 98 ± 4.1 % PfCRTDd2 control | 98 ± 3.3 % PfCRTDd2 control | 98 ± 4.1 % PfCRTDd2 control | 98 ± 3.3 % PfCRTDd2 control
4 | GTFAT [GT-5] | 51 ± 1.1 % PfCRTEcu1110 control | 41 ± 2.5 % PfCRTEcu1110 control | 30 ± 0.4 % PfCRTEcu1110 control |  | 13 ± 0.3 % PfCRTEcu1110 control | 9.0 ± 0.1 % PfCRTEcu1110 control | 62 ± 2.0 % PfCRTDd2 control | 50 ± 2.2 % PfCRTDd2 control | 20 ± 1.1 % PfCRTDd2 control | 98 ± 4.6 % PfCRTEcu1110 control | 98 ± 4.4 % PfCRTEcu1110 control | 30 ± 1.6 % PfCRTEcu1110 control | 30 ± 1.7 % PfCRTEcu1110 control | 96 ± 3.5 % PfCRT3D7 control | 96 ± 3.4 % PfCRT3D7 control | 96 ± 3.5 % PfCRTDd2 control | 96 ± 4.2 % PfCRTDd2 control | 96 ± 3.5 % PfCRTDd2 control | 96 ± 4.2 % PfCRTDd2 control
